2 compounds from US8071575B2, “Methods and compounds for the targeted delivery of agents to bone for interaction therewith” (priority 2007, dated 2011) can be followed below.

What all share (format): in vivo, Sprague-Dawley female rats
Data set [1] in a line: Body weight of OVX rats during treatment. To be noted: oral 3000 μg/kg, three times per week for 6 weeks. The method, then:
(§1) Animals. Six month old, bilaterally ovariectomized (OVX) or sham operated Sprague-Dawley female rats (Harlan Laboratories, Indianapolis, Ind.) were maintained at the University of Louisville Research Resources Center at 22° C. with a 12-h light/dark cycle and ad libitum access to tap water and rodent chow (Purina Laboratory Rodent Diet 5001). All animal procedures were approved by the Institutional Animal Care and Use Committee, which is certified by the American Association for Accreditation of Laboratory Animal Care.
In vivo experiments were conducted in order to investigate the efficacy of compounds of the presently-disclosed subject matter. In all of the experiments, OVX and sham operated rats were randomly divided into groups of 5-7 animals. In all of the studies experimental groups included: i) Sham-operated control (euthanized six weeks post surgery as a pretreatment control), ii) OVX control (euthanized six weeks post surgery as a pretreatment control), iii) Sham control receiving vehicle, iv) OVX control receiving vehicle, v) OVX receiving 17-ethinyl estradiol (equimolar concentration with a selected test compound), vi) OVX receiving alendronate (1.6 mg/kg), and vii) OVX receiving parathyroid hormone 1-34 (PTH) ([…]). 17-ethinyl estradiol (17 EE) is a free estrogenic agent known to be orally active, and can serve as an example of an anti-catabolic agent. […]

In data set [2] the test system is OVX rats. The data set can be described thus: Uterine mass and uterine mass to body weight ratio in OVX rats. To be noted: OVX rats, oral 3000 μg/kg; compared to animals treated with 17-ethinyl estradiol. The method, then:
as §1
(§2) In vivo experiments were conducted in order to investigate the efficacy of compounds of the presently-disclosed subject matter. In all of the experiments, OVX and sham operated rats were randomly divided into groups of 5-7 animals. In all of the studies experimental groups included: i) Sham-operated control (euthanized six weeks post surgery as a pretreatment control), ii) OVX control (euthanized six weeks post surgery as a pretreatment control), iii) Sham control receiving vehicle, iv) OVX control receiving vehicle, v) OVX receiving 17-ethinyl estradiol (equimolar concentration with a selected test compound), vi) OVX receiving alendronate (1.6 mg/kg), and vii) OVX receiving parathyroid hormone 1-34 (PTH) ([…]). 17-ethinyl estradiol (17 EE) is a free estrogenic agent known to be orally active, and can serve as an example of an anti-catabolic agent. Alendronate (Alen) is a bisphosphonate that is currently used to treat osteoporosis (e.g., Fosamax®, Merck & Co., Inc,), and can serve as an example of an anti-catabolic agent. Parathyroid hormone 1-34 (PTH) is an agent that can serve as an example of an anabolic agent. All compounds and vehicle (1% DMSO in corn oil) were administered three times per week orally by gavage except for PTH which was administered via a subcutaneous injection in a volume of 0.5 ml/kg body mass thrice per week. Compound administration was initiated 6 weeks following surgery and lasted for 6 weeks (18 doses total).
(§3) Compounds of the presently-disclosed subject matter were orally administered to OVX rats at various doses. As indicated above all BTE's were administered three times per week for 6 weeks.
(§4) Following 6 weeks of treatment, blood was obtained from each animal via cardiac puncture following an overnight fast and animals were subsequently euthanized via carbon dioxide asphyxiation. Blood was centrifuged immediately and the obtained serum samples were aliquoted and stored at −70° C. prior to analysis. Uteri were removed and fresh weights were obtained. Uterine masses were normalized to body mass at the end of the experiment. The left and right femora and left and right tibiae were subsequently collected from each animal, cleaned of soft tissue, and stored in saline at 4° C. prior to analysis.
Uterine Mass and Body Weight. […] Uterine mass can be used to as a measure of estrogenic effect occurring in a tissue outside the bone in response to treatment with a test compound or composition. Generally, a lower uterine mass can be associated with a decreased risk of adverse side effects associated with the test compound or composition. A ratio of uterine mass to body weight can be used to correct for any increase in uterine size attributable to the relative size of the individual animal. Body weight and/or uterine mass also serve as an indirect measures of toxicity of a test compound.

Data set [3] deals with OVX rats. The data set is described as follows: Quantitative determination of lipid metabolism (total cholesterol, HDL, LDL) in rat serum. The method, then: as §1, §2, §4
Quantitative Determination of Lipid Metabolism (Total Cholesterol HDL, and LDL) in Rat Serum. Total cholesterol, high-density lipoprotein (HDL), and low-density lipoprotein (LDL) were quantitatively determined in the serum of rats in order to evaluate the extraosseous effects of estrogen treatment on lipid metabolism. Commercially available kits from Wako Diagnostics (Richmond, Va.) were used for the evaluations as recommended by the manufacturer.

Data set [4] has as its system OVX rats. The data set can be described thus: Regional femoral density via Archimedes' Principle. To be noted: three times per week for 6 weeks. The method, then: as §1, §2, §3
Following 6 weeks of treatment, blood was obtained from each animal via cardiac puncture following an overnight fast and animals were subsequently euthanized via carbon dioxide asphyxiation. […]
Regional Femoral Density via Archimedes' Principle. […] Briefly, each femur was measured with a Cen-Tech Digital Caliper and a cut was made from each end at 20% of the length of the femur plus half the width of the blade. Subsequently, the bone marrow was washed out of the femoral diaphysis and the Archimedes density for each of the three femoral regions was determined as described above.

Data set [5] relates to OVX rats. The data set is described as follows: Rat Osteocalcin EIA (serum). To be noted: 100 or 1000 μg/kg doses. How it is done:
as §1
In vivo experiments were conducted in order to investigate the efficacy of compounds of the presently-disclosed subject matter. In all of the experiments, OVX and sham operated rats were randomly divided into groups of 5-7 animals. […]
Rat Osteocalcin EIA. […] Rat serum osteocalcin levels were measured using the Rat Osteocalcin EIA Kit from Biomedical Technologies, Incorporated (Stoughton, Mass.) as recommended by the manufacturer.

In the case of `COc1ccc(NC(=O)CCC(=O)OC2CCC3C4CCC5=CC(=O)CCC5(C)C4CCC23C)c(O)c1C(N)=O` (centres unmarked) [Formula 33], the body weight result in data set [1] is “lower body weights as compared to the OVX animals”. Also, in the data set with OVX rats [2], the “ratio of uterine mass to body weight” value is on record as “lower” and the uterine mass result is “lower”. The “lipid metabolism (total cholesterol, HDL, LDL in serum)” value in the data set with OVX rats [3] (present-tense example, no data or figure) was “limited or no effect”. Besides, in the data set with OVX rats [4] (oral 3000 μg/kg), the “regional bone density (proximal and distal left femur)” value is reported as “higher than that of the OVX animals”.
For the compound `COc1ccc(NC(=O)COCCOCCNC(=O)CCOC2CCC3C4CCc5cc(O)ccc5C4CCC23C)c(O)c1C(N)=O` (centres unmarked) [Formula 123], the “lipid metabolism (total cholesterol, HDL, LDL in serum)” value in the data set on OVX rats [3] (rat, in vivo) is reported as “limited or no effect”. Further, the “regional bone density (left femur)” value in the data set with OVX rats [4] (oral 10, 100, or 1000 μg/kg) is listed as “increased regional bone densities, as compared to the OVX animals”. Further, in the data set with OVX rats [5], the serum osteocalcin levels entry is “stimulates osteocalcin”.
